{
  "source": "patent US12638451B2",
  "about": "“Genetic amplified tumor homing nanoparticles and compositions and methods thereof” (priority 2019, dated 2026)",
  "system": "xenograft models of prostate cancer",
  "assay": "In vivo antitumor efficacy",
  "parameters": "species or system mice",
  "details": "Dox 22 μg/mL or Tf-Dox containing 5 μg/mL Dox i.v.; Ad.DD3 intratumoral 7 days before; 14 days observation",
  "description": "To study the in vivo enhancement effect of the genetic probes on the antitumor efficacy of Tf-Dox, we first established xenograft models of prostate cancer by subcutaneous injection of LNCap tumor cells (about 1×10^6) in Matrigel (BD Biosciences; 1/1) into the left shoulder of BALB/c male mice. […] During 14 days of observation, we monitored the tumor volumes according to the following formula: V=a×b^2/2 where a and b were the longest and shortest diameters of the tumor, respectively, measured using a Vernier caliper. […] The reduced injection dose, in turn, is promising to lower down the distribution and biotoxicity of drugs towards the normal tissues. […] Thus, the optimized therapy outcome of the gene-nanoparticle synergetic strategy is resulted from the enhanced tumor homing ability of the nanoparticles leading to higher DOX accumulation in the tumor cells rather than the antitumor effect of the gene probes.\nXenograft models of prostate cancer were established by subcutaneous injection of LNCap tumor cells (about 1×10^6) in Matrigel (BD Biosciences; 1/1) into the left shoulder of BALB/c male mice. […] Changes in tumor volume and body weight were monitored at several scheduled time-points. The volume of the tumor was calculated according to the following formula: V=a×b^2/2 where a and b were the longest and shortest diameters of tumor, respectively, measured using a Vernier calliper. […]",
  "data": [
    {"substance": "Tf-Dox", "values": [
      {"measurement": "Tumor volume / tumor inhibition", "result": "an increase of tumor volume was visualized"}
    ]}
  ]
}
